Assay results as given in US6368413B1, “Process for preparing improved sugar product” (Praxair Technology, Inc., priority 2000, dated 2002).

Test system: Aerobic Bacteria
Test: Disinfection of sugar liquor by ozonation, aerobic bacteria count
Description: In the laboratory, tests were performed on refinery liquors at Brix 66 to 70 and color between 60 and 300 Icumsa units (the color of sugar liquors is expressed in Icumsa units following the specific and standardized methodology well known in the sugar industry). A laboratory model generator was used to pass ozone into a batch reactor. The ozone generator was operating on a pure feed gas and it produced 40 g/h of ozone at 5% concentration. Two mixer reactors were used, the first one operating at 800 rpm under a pressure of 60 psig with 2L capacity and the second one operating at atmospheric pressure and 1200 rpm with 10 L capacity. A series of tests were carried out with different types of liquors and the treated sugar was characterized in terms of color, turbidity, pH, saccharose degradation, toxicity and disinfection. The following examples present results of experiments performed in different ozonation conditions with different types of liquors. A 184 Icumsa color units liquor was treated with 200 mg/L of ozone during 8 min using the pressurized reactor. A low color liquor, 64 Icumsa units was treated in the atmospheric pressure reactor under two different ozonation conditions. The following table presents the results of microbiological analyses.

What does the source list for `O=[O+][O-]` [ozone]?
reduction of number of total bacteria after ozonation (Example 6: 200 mg/L ozone, 8 min): 95%; reduction of bacteria (Example 7: 200 mg/l ozone): 89%; disinfection (Example 7: 400 mg/L of ozone): complete disinfection
